Experimental data reported in patent publication US10377734B2, “Resist composition, method for forming resist pattern, polyphenol derivative for use in the composition” (Mitsubishi Gas Chemical Company, Inc., priority 2013, dated 2019).

Assay: Solubility test of compound in safe solvent
Assay type: physicochemical
Details: 23° C., ultrasonic wave 30 minutes, visual evaluation; for Solubility test of compound in safe solvent CHN: CHN (cyclohexanone); for Solubility test of compound in safe solvent PGME: PGME (propylene glycol monomethyl ether)
Protocol: (1) Solubility Test of Compound in Safe Solvent
The solubility of the compound in CHN, PGME and PGMEA was evaluated according to the following standard using the dissolution amount in each solvent. The dissolution amount was determined by precisely weighing the compound in a test tube at 23° C.; adding the target solvent to the compound so that a predetermined concentration of the liquid to be obtained was set; applying a ultrasonic wave to the liquid in an ultrasonic washing machine for 30 minutes; and visually evaluating the state of the resulting liquid.
A: 5.0% by mass Dissolution amount
B: 3.0% by mass Dissolution amount <5.0% by mass
C: Dissolution amount <3.0% by mass

Row | Solubility test of compound in safe solvent CHN | Solubility test of compound in safe solvent PGME | Solubility test of compound in safe solvent PGMEA | SMILES
1 | A (5.0% by mass Dissolution amount) | A (5.0% by mass Dissolution amount) | A (5.0% by mass Dissolution amount) | CC(C)(C)OC(=O)Oc1ccc(C(c2ccc(OC(=O)OC(C)(C)C)cc2)c2ccc3ccc(C(c4ccc(OC(=O)OC(C)(C)C)cc4)c4ccc(OC(=O)OC(C)(C)C)cc4)cc3c2)cc1 [TetP-1-BOC, reference compound]

Row | SMILES | Solubility test of compound in safe solvent CHN | Solubility test of compound in safe solvent PGME | Solubility test of compound in safe solvent PGMEA
2 | CC(C)(C)OC(=O)Oc1ccc2c(C(c3ccc(-c4ccccc4)cc3)c3c(OC(=O)OC(C)(C)C)ccc4cc(OC(=O)OC(C)(C)C)ccc34)c(OC(=O)OC(C)(C)C)ccc2c1 [BisN-1-BOC] | A (5.0% by mass Dissolution amount) | B (3.0% by mass Dissolution amount <5.0% by mass) | A (5.0% by mass Dissolution amount)
3 | CC(C)(C)OC(=O)COc1ccc2c(C(c3ccc(-c4ccccc4)cc3)c3c(OCC(=O)OC(C)(C)C)ccc4cc(OCC(=O)OC(C)(C)C)ccc34)c(OCC(=O)OC(C)(C)C)ccc2c1 [BisN-1-MeBOC] | A (5.0% by mass Dissolution amount) | A (5.0% by mass Dissolution amount) | B (3.0% by mass Dissolution amount <5.0% by mass)
4 | CC(C)(C)OC(=O)Oc1ccc2c3c(ccc2c1)Oc1ccc2cc(OC(=O)OC(C)(C)C)ccc2c1C3c1ccc(-c2ccccc2)cc1 [XBisN-1-BOC] | A (5.0% by mass Dissolution amount) | B (3.0% by mass Dissolution amount <5.0% by mass) | A (5.0% by mass Dissolution amount)
5 | CC(C)(C)OC(=O)COc1ccc2c3c(ccc2c1)Oc1ccc2cc(OCC(=O)OC(C)(C)C)ccc2c1C3c1ccc(-c2ccccc2)cc1 [XBisN-1-MeBOC] | A (5.0% by mass Dissolution amount) | A (5.0% by mass Dissolution amount) | B (3.0% by mass Dissolution amount <5.0% by mass)
